Data reported in article PMC8586704 (Frontiers in Chemistry, 2021).
In brackets after ≈: the same amount, converted by molar mass. Like-named read-outs stand apart in the source and are kept apart here. Starred links: 1 amine or outer side, 2 acyl side, 3 side chain; linkers in the order of their positions; H or OH if unused. Non-standard residues stand in square brackets, D forms with d. Residues, ends and D or L forms follow the SMILES beside them. Groups on a side chain read outwards from the residue. X10 = CC[C@H](C)[C@H](NC(=O)[C@@H](C)C[C@@H](C(=O)[*:2])N(C)[*:1])C(=O)OC; Trp(1-(1,1-Me2-allyl)) = C=CC(C)(C)n1cc(C[C@H](N)C(=O)O)c2ccccc21; NMeGlu(4S-Me) = C[C@@H](C[C@@H](C(=O)[*:2])N(C)[*:1])C(=O)[*:3]; X9 = CSCCC(=O)Oc1ccc(C[C@H](N[*:1])C(=O)[*:2])cc1[N+](=O)[O-]; X12 = C[C@@H](C[C@@H](C(=O)[*:2])N(C)[*:1])C(=O)NCc1ccccc1; Tyr(3-NO2) = N[C@@H](Cc1ccc(O)c([N+](=O)[O-])c1)C(=O)O; Gly(E-crotyl) = C/C=C/C[C@H](N)C(=O)O; NMeL = CN[C@@H](CC(C)C)C(=O)O

Experiments:
HCT116 = experiment: cells; format: cell-based; conditions: Homo sapiens, HCT-116; colon cancer cell line
MCF-7 = experiment: cells; format: cell-based; conditions: Homo sapiens, MCF7; breast adenocarcinoma cell line
M. tuberculosis H37Rv = experiment: Antitubercular activity assay, broth dilution, auto-luminescent strain; format: cell-based, Mycobacterium tuberculosis
L02 = experiment: cells; format: cell-based; conditions: normal human hepatic cell line
HeLa = experiment: cells; format: cell-based; conditions: Homo sapiens, cervical carcinoma cell line
A549 = experiment: Cytotoxicity assay (CCK-8); format: cell-based; conditions: Homo sapiens, lung cancer cell line
HepG2 = experiment: cells; format: cell-based; conditions: Homo sapiens, hepatocellular carcinoma cell line
Huvec-12 = experiment: Cytotoxicity assay (CCK-8); format: cell-based; conditions: normal human umbilical vein endothelial cell line
[1] = Mycobacterium tuberculosis, H37RV, Day 3rd, read-out: MICs against H37Rv, Day 3rd
[2] = Mycobacterium tuberculosis, H37RV, Day 7th, read-out: MICs against H37Rv, Day 7th
[3] = Mycobacterium tuberculosis, H37RV, Day 14th, read-out: MICs against H37Rv, Day 14th
[4] = Day 3rd, read-out: MICs against H37Rv, Day 3rd
[5] = Day 14th, read-out: MICs against H37Rv, Day 14th

SMILES | IC50 (HCT116) [µM] | IC50 (MCF-7) [µM] | MIC (M. tuberculosis H37Rv; [1]) [µM] | MIC (M. tuberculosis H37Rv; [2]) [µM] | MIC (M. tuberculosis H37Rv; [3]) [µM] | IC50 (L02) [µM] | IC50 (HeLa) [µM] | IC50 (A549) [µM] | IC50 (HepG2) [µM] | IC50 (Huvec-12) [µM] | MIC (M. tuberculosis H37Rv; [4]) [µM] | MIC (M. tuberculosis H37Rv; [5]) [µM]
C=CC(C)(C)n1cc(C[C@@H]2NC(=O)[C@H](C/C=C/C)NC(=O)[C@H](CC(C)C)NC(=O)[C@H](C[C@H](C)C(=O)N[C@H](C(=O)OC)[C@@H](C)CC)N(C)C(=O)[C@H](C)NC(=O)[C@H](Cc3ccc(O)c([N+](=O)[O-])c3)NC(=O)[C@H](CC(C)C)N(C)C2=O)c2ccccc21 [Compound 3, ilamycin NJL3] (cyclo(A[X10]L[Gly(E-crotyl)][Trp(1-(1,1-Me2-allyl))][NMeL][Tyr(3-NO2)])) | > 50 | > 50 | 6.8 (≈ 7.95 µg/mL) | 6.8 (≈ 7.95 µg/mL) | 6.8 (≈ 7.95 µg/mL) | 12 | 14.5 | > 50 | > 50 | > 50 | – | –
C=CC(C)(C)n1cc(C[C@@H]2NC(=O)[C@H](C/C=C/C)NC(=O)[C@H](CC(C)C)NC(=O)[C@H](C[C@H](C)C(=O)O)N(C)C(=O)[C@H](C)NC(=O)[C@H](Cc3ccc(OC(=O)CCSC)c([N+](=O)[O-])c3)NC(=O)[C@H](CC(C)C)N(C)C2=O)c2ccccc21 [Compound 18, ilamycin NJL18] (cyclo(A[NMeGlu(4S-Me)]L[Gly(E-crotyl)][Trp(1-(1,1-Me2-allyl))][NMeL][X9])) | > 50 | > 50 | 28 (≈ 32 µg/mL) | 28 (≈ 32 µg/mL) | 28 (≈ 32 µg/mL) | > 50 | > 50 | > 50 | > 50 | > 50 | – | –
C=CC(C)(C)n1cc(C[C@@H]2NC(=O)[C@H](C/C=C/C)NC(=O)[C@H](CC(C)C)NC(=O)[C@H](C[C@H](C)C(=O)N[C@@H](Cc3ccc(O)cc3)C(=O)OC)N(C)C(=O)[C@H](C)NC(=O)[C@H](Cc3ccc(O)c([N+](=O)[O-])c3)NC(=O)[C@H](CC(C)C)N(C)C2=O)c2ccccc21 [Compound 8, ilamycin NJL8] (cyclo(A[NMeGlu(4S-Me)]([Tyr-OMe])L[Gly(E-crotyl)][Trp(1-(1,1-Me2-allyl))][NMeL][Tyr(3-NO2)])) | > 50 | > 50 | 1.6 to 3.5 (≈ 1.95 to 4.27 µg/mL) | 1.6 (≈ 1.95 µg/mL) | 1.6 to 1.7 (≈ 1.95 to 2.07 µg/mL) | > 50 | > 50 | > 50 | > 50 | > 50 | 1.6 (≈ 1.95 µg/mL) | 1.6 (≈ 1.95 µg/mL)
C=CC(C)(C)n1cc(C[C@@H]2NC(=O)[C@H](C/C=C/C)NC(=O)[C@H](CC(C)C)NC(=O)[C@H](C[C@H](C)C(=O)NCc3ccccc3)N(C)C(=O)[C@H](C)NC(=O)[C@H](Cc3ccc(O)c([N+](=O)[O-])c3)NC(=O)[C@H](CC(C)C)N(C)C2=O)c2ccccc21 [Compound 9, ilamycin NJL9] (cyclo(A[X12]L[Gly(E-crotyl)][Trp(1-(1,1-Me2-allyl))][NMeL][Tyr(3-NO2)])) | > 50 | > 50 | 3.5 (≈ 3.96 µg/mL) | 3.5 (≈ 3.96 µg/mL) | 3.5 (≈ 3.96 µg/mL) | > 50 | > 50 | > 50 | > 50 | > 50 | – | –
COc1cccc2c1C(=O)c1c(O)c3c(c(O)c1C2=O)C[C@@](O)(C(=O)CO)C[C@@H]3O[C@H]1C[C@H](N)[C@H](O)[C@H](C)O1 [doxorubicin, reference compound] | 4 | 4 | – | – | – | 7.7 | 0.7 | 1.5 | 0.6 | 12 | – | –
C=CC(C)(C)n1cc(C[C@@H]2NC(=O)[C@H](C/C=C/C)NC(=O)[C@H](CC(C)C)NC(=O)[C@H](C[C@H](C)C(=O)N[C@@H](Cc3c[nH]c4ccccc34)C(=O)OC)N(C)C(=O)[C@H](C)NC(=O)[C@H](Cc3ccc(O)c([N+](=O)[O-])c3)NC(=O)[C@H](CC(C)C)N(C)C2=O)c2ccccc21 [Compound 6, ilamycin NJL6] (cyclo(A[NMeGlu(4S-Me)]([Trp-OMe])L[Gly(E-crotyl)][Trp(1-(1,1-Me2-allyl))][NMeL][Tyr(3-NO2)])) | > 50 | > 50 | 1.6 to 3.5 (≈ 1.99 to 4.35 µg/mL) | 1.7 (≈ 2.11 µg/mL) | 1.6 to 1.7 (≈ 1.99 to 2.11 µg/mL) | > 50 | > 50 | > 50 | > 50 | > 50 | 1.7 (≈ 2.11 µg/mL) | 1.7 (≈ 2.11 µg/mL)
